{"source": "patent US6699834B1", "about": "“Method for treating cancer” (University of Maryland Biotechnology Institute, priority 1997, dated 2004)", "key": {"[1]": {"test_system": "Kaposi's Sarcoma induced in mice", "assay": "Kaposi's Sarcoma tumors induced in mice by KS Y-1 cells", "assay_type": "in vivo"}, "breast cancer cells [2]": {"test_system": "breast cancer cells", "assay": "Trypan blue cell death assay, breast cancer cells", "assay_type": "cell-based", "details": "100 ug/ml", "experimental": "(§1) The hCG preparations, fractions of the early pregnancy urine and hCG APL™ SUPERDEX™ 200 fractionations (described herein), and certain β-hCG peptides were tested on prostate, lung, breast, and kidney cancer cells in vitro, and on prostate tumors in nude mice. […] The preparations fractions and peptides were also assayed using a clonogenic assay in which cells were seeded in methylcellulose in the presence or absence of test substance and then colonies were counted after a certain period of time. Cells were also examined for apoptosis by confocal microscopy.\nThe effects of hCG preparations, hCG fractions and β-hCG peptides were also tested in breast cancer cells in vitro. Breast cancer cells were incubated with the hCG preparations, hCG fractions and β-hCG peptides in both the trypan blue viability assay and the clonogenic assay."}, "breast cancer cells [3]": {"test_system": "breast cancer cells", "assay": "Clonogenic assay, breast cancer cells", "assay_type": "cell-based", "details": "100 ug/ml", "experimental": "as §1\nThe hCG preparation, hCG fractions and β-hCG peptides were also tested for the inhibition of breast cancer cell colony formation in the clonogenic assay."}, "HIV-1 transgenic mice": {"test_system": "HIV-1 transgenic mice", "assay": "Survival, growth and weight of HIV-1 transgenic mouse pups", "assay_type": "in vivo", "experimental": "The HIV-1 transgenic mice used for this study contain 7.4 kb of foreign DNA, including 5.1 kb of the HIV-1 proviral genome deleted in the gag and pol genes and 2.3 kb of vector (Dickie et al., 1991, Virology 185:109-119). […] In addition, these mice develop severe hyperkeratotic skin lesions with marked expression of gp 120 and nef genes (Kopp et al., 1993, AIDS Res. Hum. Retroviruses 9:267-275; Vasli et al., 1994, AIDS Res. Hum. Retroviruses 10:1241-1250).\nFinally, certain fractions were tested for their ability to increase survival, promote weight gain and reduce HIV-1 gene expression in HIV-1 transgenic mice as described herein.\nHIV-I transgenic pups administered hCG and hCG-related preparations for the first 5 days after birth through the mothers milk were monitored for survival at 10 days after birth."}, "prostate cancer cells": {"test_system": "prostate cancer cells", "assay": "Prostate cancers induced in nude mice", "assay_type": "in vivo", "details": "peptide 200 μg per day, hCG APL 100 IU per day, systemic"}, "lung cancer cells [4]": {"test_system": "lung cancer cells", "assay": "Apoptosis by confocal microscopy, lung cancer cells", "assay_type": "cell-based", "details": "48 hours", "experimental": "The preparations fractions and peptides were also assayed using a clonogenic assay in which cells were seeded in methylcellulose in the presence or absence of test substance and then colonies were counted after a certain period of time. Cells were also examined for apoptosis by confocal microscopy. FIGS. 23A-F show confocal micrograms of lung cancer cells treated with the hCG or hCG related preparation and then stained with FITC labelled actin monoclonal antibody to visualize the cytoskeleton and propidium iodine to visualize the cells nucleus. Condensation of the nucleus and damage to the cytoskeleton are indications of apoptosis."}, "lung cancer cells [5]": {"test_system": "lung cancer cells", "assay": "Clonogenic assay, lung cancer cells", "assay_type": "cell-based", "details": "compared to PBS alone", "experimental": "as §1"}}, "note": "Bridge positions count the residues as written; N and C are the ends. Ends that are not written are not given here."}
{"substance": "4. Circ 44-57: β-hCG 44-57 with cysteine substituted at position 44, circularized via disulfide bond (SEQ ID NO:26) (CLQGVLPALPQVVC; disulfide 1-14 (inferred))", "values": [{"measurement": "inhibition of HIV-1 infection/replication in vitro (in words)", "setting": "HIV-1", "value": "inhibit HIV-1 replication in vitro"}, {"measurement": "HIV in vitro Inhibition", "setting": "HIV-1; inhibition of HIV-1 replication in vitro (HIV-1 strains and HIV-1 primary isolates)", "value": "+++ (“+++” represents greater than 70% effect)"}, {"measurement": "KS in vivo", "setting": "[1]; inhibition of Kaposi's Sarcoma induced in mice", "value": "+++ (“+++” represents greater than 70% effect)"}, {"measurement": "effect on KS tumors in mice (in words)", "setting": "[1]; mouse, in vivo", "value": "extensive cell death"}, {"measurement": "% dead cells", "setting": "breast cancer cells [2]", "value": 42, "unit": "%"}, {"measurement": "% inhibition (colony formation)", "setting": "breast cancer cells [3]", "value": 45, "unit": "%"}, {"measurement": "weight gain / growth retardation and cachexia", "setting": "HIV-1 transgenic mice; HIV-1 transgenic pups", "value": "higher weight gain than untreated mice"}, {"measurement": "survival at 10 days after birth", "setting": "HIV-1 transgenic mice; administered first 5 days after birth through mothers milk", "value": "promote survival"}, {"measurement": "apoptosis of prostate cancer cells in vivo", "setting": "prostate cancer cells", "value": "caused apoptosis of the prostate cancer cells in vivo"}, {"measurement": "apoptosis", "setting": "lung cancer cells [4]", "value": "increased apoptosis"}, {"measurement": "colony formation", "setting": "lung cancer cells [5]", "value": "inhibited colony formation"}]}
